Test results reported in PubChem BioAssay AID2647 (Sanford-Burnham Center for Chemical Genomics, 2010).

Tested on: MDA-MB-435/MDR TRAIL potentiation, ATPlite luminescence, 24 h
Experiment: PubChem AID 2647

CSc1nc(-c2ccc(C)cc2)nc(C(Cl)Cl)n1
cytotoxicity with TRAIL (at 10 µM (top of the series)): 84%
cytotoxicity (compound alone without TRAIL, at 10 µM, stronger effect = higher value): 1%
